# Reference: patent US11072614B2, “Polymorphs of sepiapterin and salts thereof” (PTC Therapeutics MP, Inc., priority 2016, dated 2021)
# Columns and labels:
# Type in all cases: physicochemical
# [1] = Storage stability study of solid forms, form change by XRD (Example 11); conditions: 10% RH
# Description: For X-ray powder diffraction analysis, a PANalytical Empyrean X-ray powder diffractometer was used. The parameters are as follows:
# (§1) Form A and F samples were placed in chambers with silica gel to remove water (the relative humidity was measured to be ˜10% RH) at different temperatures. Form D samples were placed in chambers with water (relative humidity was estimated to be ˜100% RH) at different temperatures.
# (§2) The HPLC purities and XRD patterns were obtained for each of Form A/F/D samples stored at various temperatures.
# [2] = Physical form stability to grinding and sieving (XRD before and after)
# Description: A sample of sepiapterin free base was obtained commercially. […] The sepiapterin sample contained particles with an average particle size over 100 μm. The XRD pattern was determined before and after grinding to reduce the particle size such that it passes through a 140 mesh screen. This polymorph of sepiapterin free base is referred to as Form A herein.
# [3] = Storage stability study of solid forms, HPLC purity (Example 11); conditions: for % of Initial / Purity (area %): 10% RH
# Description: as §1, §2
# [4] = Storage stability of polymorphs, HPLC sepiapterin and impurity profile (Example 12); set-up: Impurity RRT 1.06 / Impurity RRT 1.08 / Impurity RRT 1.17 / Impurity RRT 1.21 / Impurity RRT 1.25 / Impurity RRT 0.62 / Impurity RRT 0.89 / Impurity RRT 0.95 / Impurity RRT 0.60: unit not given here
# Description: Samples of sepiapterin free base polymorph Forms D, F, and A were stored at room temperature (RT), 35° C., and 50° C. The samples were analyzed by HPLC at 1 week and 4 week intervals. The HPLC parameters were as follows: [table]
# [5] = 35° C./10% RH, 1 w, listed as Polymorph A
# [6] = 35° C./10% RH, 4 w, listed as Polymorph A
# [7] = 50° C./10% RH, 1 w, listed as Polymorph A
# [8] = 50° C./10% RH, 4 w, listed as Polymorph A
# [9] = RT/10% RH, 1 w, listed as Polymorph A
# [10] = RT/10% RH, 4 w, listed as Polymorph A
structure (smiles),measurement,setting,value
"C[C@H](O)C(=O)C1=Nc2c(nc(N)[nH]c2=O)NC1 [Form A, sepiapterin]",Form change,"[1]; 35° C., storage 1 week",No
same,Form change,"[1]; 35° C., storage 4 weeks",No
same,Form change,"[1]; 50° C., storage 1 week",No
same,Form change,"[1]; 50° C., storage 4 weeks",No
same,Form change,"[1]; RT, storage 1 week",No
same,Form change,"[1]; RT, storage 4 weeks",No
same,physical form stability to grinding and sieving,[2],confirms the physical form stability
same,% of Initial,"[3]; 35° C., storage 1 week",98.6%
same,Purity (area %),"[3]; 35° C., storage 1 week",98.0 area %
same,% of Initial,"[3]; 35° C., storage 4 weeks",96.7%
same,Purity (area %),"[3]; 35° C., storage 4 weeks",96.1 area %
same,% of Initial,"[3]; 50° C., storage 1 week",95.8%
same,Purity (area %),"[3]; 50° C., storage 1 week",95.2 area %
same,% of Initial,"[3]; 50° C., storage 4 weeks",89.1%
same,Purity (area %),"[3]; 50° C., storage 4 weeks",88.5 area %
same,% of Initial,"[3]; RT, storage 1 week",99.5%
same,Purity (area %),"[3]; RT, storage 1 week",98.8 area %
same,% of Initial,"[3]; RT, storage 4 weeks",98.8%
same,Purity (area %),"[3]; RT, storage 4 weeks",98.2 area %
same,purity of initial samples by HPLC,"[3]; initial, before storage",99.3 area %
same,stability as determined by HPLC (in words),"[3]; storage at RT, 35° C., 50° C., 1 and 4 weeks",significantly less stability
same,Impurity RRT 0.62,"[4]; 35° C./10% RH, 1 w",0.24
same,Impurity RRT 0.89,"[4]; 35° C./10% RH, 1 w",<0.05
same,Impurity RRT 1.06,"[4]; 35° C./10% RH, 1 w",<0.05
same,Impurity RRT 1.21,"[4]; 35° C./10% RH, 1 w",<0.05
same,Impurity RRT 1.25,"[4]; 35° C./10% RH, 1 w",<0.05
same,Impurity RRT 0.95,[4]; [5],1.36
same,Impurity RRT 1.08,[4]; [5],0.28
same,Impurity RRT 1.17,[4]; [5],0.16
same,Sepiapterin RRT 1.00 (amount of sepiapterin),[4]; [5],97.97%
same,Impurity RRT 0.62,"[4]; 35° C./10% RH, 4 w",1.03
same,Impurity RRT 0.89,"[4]; 35° C./10% RH, 4 w",<0.05
same,Impurity RRT 1.06,"[4]; 35° C./10% RH, 4 w",<0.05
same,Impurity RRT 1.08,"[4]; 35° C./10% RH, 4 w",<0.05
same,Impurity RRT 1.21,"[4]; 35° C./10% RH, 4 w",<0.05
same,Impurity RRT 1.25,"[4]; 35° C./10% RH, 4 w",<0.05
same,Impurity RRT 0.95,[4]; [6],2.70
same,Impurity RRT 1.17,[4]; [6],0.16
same,Sepiapterin RRT 1.00 (amount of sepiapterin),[4]; [6],96.06%
same,Impurity RRT 0.62,"[4]; 50° C./10% RH, 1 w",0.68
same,Impurity RRT 0.89,"[4]; 50° C./10% RH, 1 w",<0.05
same,Impurity RRT 1.06,"[4]; 50° C./10% RH, 1 w",0.45
same,Impurity RRT 1.21,"[4]; 50° C./10% RH, 1 w",<0.05
same,Impurity RRT 1.25,"[4]; 50° C./10% RH, 1 w",<0.05
same,Impurity RRT 0.95,[4]; [7],3.48
same,Impurity RRT 1.08,[4]; [7],0.08
same,Impurity RRT 1.17,[4]; [7],0.16
same,Sepiapterin RRT 1.00 (amount of sepiapterin),[4]; [7],95.15%
same,Impurity RRT 0.62,"[4]; 50° C./10% RH, 4 w",2.59
same,Impurity RRT 0.89,"[4]; 50° C./10% RH, 4 w",0.06
same,Impurity RRT 1.06,"[4]; 50° C./10% RH, 4 w",<0.05
same,Impurity RRT 1.17,"[4]; 50° C./10% RH, 4 w",0.17
same,Impurity RRT 1.21,"[4]; 50° C./10% RH, 4 w",0.06
same,Impurity RRT 1.25,"[4]; 50° C./10% RH, 4 w",0.11
same,Impurity RRT 0.95,[4]; [8],7.67
same,Impurity RRT 1.08,[4]; [8],0.85
same,Sepiapterin RRT 1.00 (amount of sepiapterin),[4]; [8],88.49%
same,Sepiapterin RRT 1.00 (amount of sepiapterin),"[4]; 50° C./10% RH, 4 w, listed as polymorph A",88.49%
same,Impurity RRT 0.89,[4]; Initial,<0.05
same,Impurity RRT 1.06,[4]; Initial,<0.05
same,Impurity RRT 1.08,[4]; Initial,<0.05
same,Impurity RRT 1.17,[4]; Initial,0.17
same,Impurity RRT 1.21,[4]; Initial,<0.05
same,Impurity RRT 1.25,[4]; Initial,<0.05
same,Impurity RRT 0.62,"[4]; Initial, listed as Polymorph A",0.08
same,Impurity RRT 0.95,"[4]; Initial, listed as Polymorph A",0.42
same,Sepiapterin RRT 1.00 (amount of sepiapterin),"[4]; Initial, listed as Polymorph A",99.33%
same,Sepiapterin RRT 1.00 (amount of sepiapterin),"[4]; Initial, listed as polymorph A",99.33%
same,Impurity RRT 0.62,"[4]; RT/10% RH, 1 w",0.16
same,Impurity RRT 0.89,"[4]; RT/10% RH, 1 w",<0.05
same,Impurity RRT 1.06,"[4]; RT/10% RH, 1 w",<0.05
same,Impurity RRT 1.17,"[4]; RT/10% RH, 1 w",0.16
same,Impurity RRT 1.21,"[4]; RT/10% RH, 1 w",<0.05
same,Impurity RRT 1.25,"[4]; RT/10% RH, 1 w",<0.05
same,Impurity RRT 0.95,[4]; [9],0.77
same,Impurity RRT 1.08,[4]; [9],0.11
same,Sepiapterin RRT 1.00 (amount of sepiapterin),[4]; [9],98.80%
same,Impurity RRT 0.62,"[4]; RT/10% RH, 4 w",0.37
same,Impurity RRT 0.89,"[4]; RT/10% RH, 4 w",<0.05
same,Impurity RRT 1.06,"[4]; RT/10% RH, 4 w",<0.05
same,Impurity RRT 1.08,"[4]; RT/10% RH, 4 w",<0.05
same,Impurity RRT 1.17,"[4]; RT/10% RH, 4 w",0.16
same,Impurity RRT 1.21,"[4]; RT/10% RH, 4 w",<0.05
same,Impurity RRT 1.25,"[4]; RT/10% RH, 4 w",<0.05
same,Impurity RRT 0.95,[4]; [10],1.29
same,Sepiapterin RRT 1.00 (amount of sepiapterin),[4]; [10],98.18%
